This data set can be described thus: Stability study of crystal form A. The following applies: for Crystal form / Purity: 25° C. The data set is classed as physicochemical. The text has this:
Experimental Example 1 Stability Study

As to `CCOc1ccc(Cc2cc([C@]3(OCC)O[C@H](CO)[C@@H](O)[C@H](O)[C@H]3O)ccc2Cl)cc1` [crystal form A, (2S,3R,4S,5S,6R)-2-(4-chloro-3-(4-ethoxybenzyl)phenyl)-2-ethoxy-6-(methylhydroxy)tetrahydro-2H-pyran-3,4,5-triol], the Crystal form entry runs as follows: (0 day) “Crystal form A”; (1 month) “Crystal form A”; (3 months) “Crystal form A”. This compound came in with a Purity (0 day) of 99.45%, a Purity (1 month) of 99.41% and a Purity (3 months) of 99.43%. Besides, the “Crystal form after drying” value (dried under vacuum at 50° C. for 3 hours) is on record as “not changed”. In addition, under “room temperature (25° C.), 3 months”, the “Crystal form after storage” value was “not changed”.

For the origin of these results see patent publication US20190284220A1, “CRYSTAL FORM OF DAPAGLIFLOZIN INTERMEDIATE AND PREPARATION METHOD THEREFOR” (Jiangsu Hansoh Pharmaceutical Group Co., Ltd., priority 2016, published 2019).
